Results on 7 molecules are retold here after patent US20260242359A1, “IRHOM2 INHIBITORS AND USES THEREOF” (NEW YORK SOCIETY FOR THE RELIEF OF THE RUPTURED AND …, priority 2023, published 2026).

The test system of assay [1] is PMA-induced release of endogenous TGFα from human PC3 prostate cancer cells. The experiment in a line: Example 17: ELISA-based TGFα release assay, PMA-induced, PC3 prostate cancer cells. In kind it is cell-based. Conditions: 10 μM final concentration, PMA 25 ng/ml, delta Buffer stimulated vs unstimulated = 100% inhibition; for inhibition at 10 µM: Homo sapiens. The procedure: In the following study, ELISA-based TGFα release assays were performed to analyze the inhibitory effects of Compounds 1, 2, 3, 4, 5, and 7 on PMA-induced release of endogenous TGFα, from human PC3 prostate cancer cells. The ELISA-based TGFα release assay that was used in this example is described below.
In brief, on day 1, Nunc black MaxiSorp® 96-well plates (Thermo Fisher Scientific, USA) were coated overnight with 100 μl per well of goat anti-human TGFα capture antibody (provided as part of the DuoSet ELISA kit) at 0.4 μg/ml TBS at 4° C.
75,000 PC3 (European Collection of Authenticated Cell Cultures, UK) cells in 100 μl of normal growth medium were seeded in each well of F-bottom 96-well cell culture plates (Corning, USA) and incubated at 37° C., 5% CO2 overnight. On day 2, the capture antibody solution was removed and MaxiSorp® plates were blocked with 300 μl per well of TBS, 1% BSA at room temperature for 5 hours. Meanwhile, cells were washed twice with PBS and pre-incubated in 80 μl of OptiMEM medium with 20 μl per well of OptiMEM medium supplemented with Batimastat (BB94, Abcam, UK) at 50 μM as positive control (for a final concentration of 10 μM in the resulting 100 μl sample volume), compounds of the invention at 50 μM (for a final concentration of 10 μM in the resulting 100 μl sample volume) and in case of Buffer stimulated and unstimulated controls with DMSO (Carl Roth, Germany) at 50 μM (for a final concentration of 10 μM in the resulting 100 μl sample volume) at 37° C., 5% CO2 for 30 minutes. Subsequently, cells (except those for unstimulated controls) were stimulated with 20 μl per well of PMA (Sigma-Aldrich, USA) at 150 ng/ml in OptiMEM for a final concentration of 25 ng/ml at 37° C., 5% CO2 for 2 hours. In parallel, blocking buffer was removed from the MaxiSorp® plates and plates were washed 4 times with 350 μl TBS-T (Carl Roth, Germany) per well on a 96-head plate washer (Tecan Group, Switzerland). To avoid drying-up, 20 μl TBS were added to each well of the MaxiSorp® plates immediately, followed by the transfer of 80 μl cell-free supernatant per sample. Additionally, 100 μl recombinant human TGFα protein (provided as part of the DuoSet ELISA kit) diluted in TBS at defined concentrations were added to the plate as standard references. Thereafter, 100 μl biotinylated goat anti-human TGFα detection antibody (provided as part of the DuoSet ELISA kit) at 37.5 ng/ml in TBS were added per well and, protected from direct light, plates were incubated at room temperature for 2 hours. After 4 times washing with 350 μl TBS-T (Carl Roth, Germany) per well on a 96-head plate washer (Tecan Group, Switzerland) and careful removal of all buffer traces after the fourth cycle, 100 μl streptavidin-AP (R&D Systems, USA) diluted 1:10,000 in TBS were added to each well and, again protected from direct light, plates were incubated at room temperature for 30 minutes. Following another round of 4 times washing with 350 μl TBS-T (Carl Roth, Germany) per well on a 96-head plate washer (Tecan Group, Switzerland) and careful removal of all buffer traces after the fourth cycle, 100 μl AttoPhos substrate solution (Promega, USA) per well was added for incubation in the dark at room temperature for 1 hour. Using an infinite M1000 (Tecan Group, Switzerland) microplate reader, the fluorescence of each well was collected at an excitation wavelength of 435 nm and an emission wavelength of 555 nm.
The delta between Buffer stimulated and Buffer unstimulated was defined 100% inhibition.

Assay [2] deals with PMA-stimulated KL2 release from HEK-293 cells (iRhom2/ADAM17 selective substrate). Briefly: Secondary screen (Example 3b): PMA-stimulated KL2 release from HEK-293 cells, AP readout. In kind it is cell-based. Conditions: Homo sapiens, HEK293, HEK-293 cells expressing KL2-AP, PMA 100 ng/mL, 2 h, read-out: Secondary Screen IC50 KitL2. The procedure: Two separate screens to identify novel small molecule inhibitors of iRhom2/ADAM17 activity were developed. […] Therefore, the primary screen for small molecule inhibitors of iRhom2/ADAM17 was a screen for inhibitors that blocked the release of TNFα from LPS-stimulated THP-1 human myeloid cells, a process that depends on iRhom2 and ADAM17. Since the release of TNFα from THP-1 cells can be blocked at many stages of the LPS/TLR4/iRhom2/ADAM17 pathway, a secondary screen was performed for another iRhom2/ADAM17 selective substrate, Kit-ligand 2 (KL-2) (Maretzky T et al. (July 2013), “iRhom2 controls the substrate selectivity of stimulated ADAM17-dependent ectodomain shedding”, PNAS 110(28): 11433-11438) in a different human cell type, human embryonic kidney cells (HEK 293).
Expression plasmids for alkaline phosphatase (AP)-fused human KL2 and TGFα had been previously designed and generated through gene synthesis followed by subcloning into the pcDNA3.1(+)/Hygro expression vector. […] Subsequently, DNA amplifications were performed to obtain sufficient amounts of the expression vectors. The quality of DNA and gene sequences were confirmed through restriction digest and Sanger sequencing. In parallel, cell culture of HEK-293 cells was initiated. Master and working cell banks were prepared, scaled up and transfected with the respective constructs by electroporation. During cell culturing, cell density and viability were monitored to ensure optimal conditions for the transfections. After PMA stimulation, AP-coupled KL2 or TGFα were detected by measurement of AP activity in the supernatant.
After electroporation, cells were further cultured in presence of selection antibiotics, hygromycin B, to generate stably transfected polyclonal cell pools. For both assays, KL2 and TGFα shedding, the respective selected pool turned out to be suitable. Final assay conditions were determined for the selected pools. For all experiments, batimastat (BB94, 10 μM) was used as positive control for full inhibition of KL2 or TGFα shedding.
The wells of sterile 384-well flat bottom clear plates for KL2-AP assays were coated with 10 μL of 0.1 mg/mL poly-d-lysine for 3-4 hr at 25° C. or overnight at 4° C., then washed 2× with PBS and patted dry. 60 μL of cells (40,000/well) were added to the sterile 384-well plate and incubated in Optimem (with 2% FCS and 1% Pen-strep) overnight at 37° C. (5% CO2). After incubation overnight, 55 μL medium were removed with a BioTek EL406 and 10 μL of prediluted compounds were added to the cells for a final concentration of 20 μM. After incubation for 15 min, 15 μL of PMA (100 ng/mL final conc.) were added. The cells were incubated for 2 h at 37° C. (5% CO2). Then, the plates were centrifuged for 5 min at 1000 rpm and 3 μL of the supernatant was transferred to a fresh 384 well plate and 9 μL of AP Balance Buffer was added per well. 12 μL of pNPP p-nitrophenyl phosphate (final 1 M pNPP) was added. AP reaction was performed for 1 h at 37° C. The reaction was stopped by addition of 12 μL of NaOH (1 M final conc.), the plates were centrifuged to remove air bubbles and the absorbance of pNP was measured at 405 nm.

SMILES strings stand for the structures.

What is called inhibition is the change of the read-out against control, counted positive when it falls. For `CNC(=O)[C@H](Cc1ccccc1)NC(=O)[C@H](CC(C)C)[C@H](CSc1cccs1)C(=O)NO` [Batimastat, reference compound], the “inhibition of PMA-induced release of TGFα from PC3 cells” value in assay [1] (2 hours) is 102.5%. Moreover, the inhibition at 10 µM in assay [1] (PC-3, 2 h) was 104%.
For `CCC(=O)NCCc1c(/C=C2/C(=O)NC(=O)N(c3ccc(C)cc3C)C2=O)[nH]c2ccccc12` [Compound 1], in assay [1] (PC-3, 2 hours), the inhibition at 10 µM was 25.5%.
In the case of `CCOC(=O)c1ccc(Nc2nc3nonc3n3nnnc23)cc1` [Compound 2], the inhibition at 10 µM in assay [1] (PC-3, 2 h) was determined as 9.1%.
What is called IC50 is the concentration at which inhibition is half-maximal. With `O=C(c1c(Cl)cccc1Cl)N1CCC(Cc2ccc(F)cc2)CC1` [Compound 3], the inhibition at 10 µM in assay [1] (PC-3, 2 h) was 12.5%. The IC50 in assay [2] was over 40 µM.
As to `Cc1c(C(=O)NCc2cccs2)sc(=O)n1Cc1ccccc1` [Compound 4], in assay [1] (PC-3, 2 h), the inhibition at 10 µM turned out to be 14.1%. The IC50 in assay [2] is over 40 µM.
For the molecule `Cc1c(C(=O)NCc2cccs2)sc(=O)n1Cc1ccccc1F` [Compound 5], the inhibition at 10 µM in assay [1] (PC-3, 2 h) is 11.3%. For the same molecule, in assay [2], the IC50 is over 40 µM.
In the case of `Cc1c(C(=O)NCc2ccco2)sc(=O)n1Cc1ccccc1F` [Compound 7], in assay [1] (PC-3, 2 h), the inhibition at 10 µM amounted to 27.3%. Besides, the IC50 in assay [2] amounted to 22 µM.
